Laboratory results: patent publication US20220257592A1, “METHODS OF TREATING CANCER” (HOFFMANN-LA ROCHE INC., priority 2019, published 2022)
Marks after values point to notes of the source that are not given here.

Assay: Clinical trial safety, integrated analysis of ALKA, STARTRK-1, STARTRK-2, STARTRK-NG (N=504)
Text: The following categories of frequency have been used: very common ≥1/10, common (≥1/100 to <1/10), uncommon (≥1/1,000 to <1/100), rare (≥1/10,000 to <1/1000), very rare (<1/10,000).

[1] = patients less than 65 years old

## CN1CCN(c2ccc(C(=O)Nc3n[nH]c4ccc(Cc5cc(F)cc(F)c5)cc34)c(NC3CCOCC3)c2)CC1 [Entrectinib, N-[5-(3,5-difluorobenzyl)-1H-indazol-3-yl]-4-(4-methyl-piperazin-1-yl)-2-(tetrahydro-pyran-4-ylamino)-benzamide]
N = 504
  Myalgia, Frequency Category (All Grades): very common (very common ≥1/10)
  Myalgia, Grade ≥3: 0.6%
  Nausea, All Grades: 32.1%
  Nausea, Frequency Category (All Grades): very common (very common ≥1/10)
  Nausea, Grade ≥3: 0.8%
  Neutropenia, All Grades: 11.3%
  Neutropenia, Frequency Category (All Grades): very common (very common ≥1/10)
  Neutropenia, Grade ≥3: 4.4%
  Pain, All Grades: 24.4%
  Pain, Frequency Category (All Grades): very common (very common ≥1/10)
  Pain, Grade ≥3: 1.6%
  Peripheral Sensory Neuropathy, Frequency Category (All Grades): very common (very common ≥1/10)
  Peripheral sensory neuropathy, All Grades: 15.7%
  Peripheral sensory neuropathy, Grade ≥3: 1.0%
  Pyrexia, All Grades: 20.0%
  Pyrexia, Frequency Category (All Grades): very common (very common ≥1/10)
  Pyrexia, Grade ≥3: 0.8%
  Rash, All Grades: 11.5%
  Rash, Frequency Category (All Grades): very common (very common ≥1/10)
  Rash, Grade ≥3: 1.4%
  Sleep disturbances, All Grades: 13.5%
  Sleep disturbances, Frequency Category (All Grades): very common (very common ≥1/10)
  Sleep disturbances, Grade ≥3: 0.4%
  Syncope, All Grades: 4.6%
  Syncope, Frequency Category (All Grades): common (common (≥1/100 to <1/10))
  Syncope, Grade ≥3: 3.0%
  Tumor lysis syndrome, All Grades: 0.2%
  Tumor lysis syndrome, Frequency Category (All Grades): uncommon (uncommon (≥1/1,000 to <1/100))
  Urinary tract infection, All Grades: 12.7%
  Urinary tract infection, Frequency Category (All Grades): very common (very common ≥1/10)
  Urinary tract infection, Grade ≥3: 2.6%
  Vision Blurred, Frequency Category (All Grades): very common (very common ≥1/10)
  Vision Blurred, Grade ≥3: 0.4%
  Vomiting, All Grades: 23.2%
  Vomiting, Frequency Category (All Grades): very common (very common ≥1/10)
  Vomiting, Grade ≥3: 1.2%
  Weight increased, All Grades: 26.4%
  Weight increased, Frequency Category (All Grades): very common (very common ≥1/10)
  Weight increased, Grade ≥3: 7.3%
N = 504, ataxia, balance disorder, gait disturbances
  Ataxia, All Grades: 15.7%
N = 504, diplopia, vision blurred, visual impairment
  Vision Blurred, All Grades: 11.9%
Adult patients
  Entrectinib interrupted due to fractures: 36.0%
  Grade 3 or 4 bone fractures: 1.9%
  Grade 3 or 4 headache: 0.6%
  Grade 3 or 4 neutropenia: 3.4%
  Grade 3 or 4 weight increased: 6.9%
Adult patients (N=475)
  Fractures: 5.3%
adults, range: 0.26 months to 18.5 months
  Median time to fracture: 3.42 months
Elderly (65 years or older)
  Ataxia: 23.8%
  Blood creatinine increased: 31.5%
  Dizziness: 48.5%
  Hypotension: 21.5%
human, in vivo
  Bilateral femoral neck fractures: 2 pediatric patients
  Cognitive disorders, Grade 3 events: 4.4%
  Cognitive symptoms: amnesia: 2.8%
  Cognitive symptoms: cognitive disorders: 6.3%
  Cognitive symptoms: confusional state: 7.3%
  Cognitive symptoms: delirium: 0.8%
  Cognitive symptoms: disturbance in attention: 3.8%
  Cognitive symptoms: hallucination: 1.0%
  Cognitive symptoms: hallucination visual: 0.4%
  Cognitive symptoms: memory impairment: 4.2%
  Cognitive symptoms: mental disorder: 0.2%
  Cognitive symptoms: mental status changes: 1.2%
  Discontinuation due to fractures: No patients discontinued
  Eye disorders: diplopia: 2.6%
  Eye disorders: vision blurred: 8.5%
  Eye disorders: visual impairment: 1.6%
  Overall safety profile in elderly patients vs patients younger than 65 years: similar
  Patients recovered from ataxia: 67.1%
  Patients recovered from peripheral neuropathy: 55.7%
  Patients recovered from the eye disorder events: 61.7%
human, in vivo, 5.5 months
  Dyspnea, Grade ≥3: 5.8* %
  Lung infection, Grade ≥3: 6.0* %
  Tumor lysis syndrome, Grade ≥3: 0.2* %
[1]
  Ataxia: 12.8%
  Blood creatinine increased: 23.3%
  Dizziness: 36.6%
  Hypotension: 14.7%
Patients with at least one post-baseline ECG assessment, 12 patients
  QTcF interval of ≥500 ms: 2.8%
Patients with at least one post-baseline ECG assessment, 17 patients
  QTcF interval prolongation of >60 ms after starting entrectinib: 4.0%
Patients with brain metastases at baseline
  Cognitive disorder events: 29.7%
Patients without brain metastases
  Cognitive disorder events: 23.1%
Pediatric patients
  Entrectinib interrupted due to fractures: 33.3%
  Grade 3 or 4 bone fractures: 12.5%
  Grade 3 or 4 headache: 6.3%
  Grade 3 or 4 neutropenia: 28.1%
  Grade 3 or 4 weight increased: 21.9%
Pediatric patients (N=29)
  Fractures: 20.7%
Pediatric patients, range: 1.77 months to 7.39 months
  Median time to fracture: 3.38 months
Pediatric population (1/29)
  Disturbance in attention of Grade 1 severity: 3.4%
Range 0.03 months to 14.49 months
  Eye disorders, median duration: 1.02 months
Range 0.03 months to 20.93 months
  Peripheral sensory neuropathy, median time to onset: 0.49 months
range: 0.03 months to 11.99 months
  Ataxia, median duration: 0.66 months
range: 0.03 months to 21.59 months
  Eye disorders, median time to onset: 1.87 months
range: 0.03 months to 28.19 months
  Ataxia, median time to onset: 0.36 months
range: 0.07 months to 6.01 months
  Peripheral sensory neuropathy, median duration: 0.76 months
